Experimental findings from PubChem BioAssay (NCI) are described below.

Some test systems named below: PC-3 prostate; A549 NSCLC; HOP-62 NSCLC; COLO 205 colon; U251 CNS; HCT-15 colon; MDA-MB-435; K-562 leukemia; HOP-92 NSCLC; IGROV1 ovarian.
Experiment in all cases: NCI anticancer screen, dose series, 48 h

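How tested: cells in 96-well plates exposed to compound for 48 hours at five concentrations. Definition used: TGI = concentration required for complete inhibition of growth.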 Some results are limits rather than exact numbers.

As to `CCCCCCCCCCCCc1ccsc1-c1ccc(-c2ccc(-c3sccc3CCCCCCCCCCCC)s2)s1`, the TGI in the assay on PC-3 prostate, in the assay on A549 NSCLC, with HOP-62 NSCLC, in the assay with COLO 205 colon, with U251 CNS and in the assay with HCT-15 colon was > 100 µM throughout. Besides, the TGI with MDA-MB-435, in the assay with K-562 leukemia, in the assay on HOP-92 NSCLC and in the assay on IGROV1 ovarian was > 100 µM throughout.
For the molecule `OCC1OC(n2cnc3c(Cl)nc(Nc4ccc(Cl)c(Cl)c4)nc32)CC1O` (stereo not given), the TGI in the assay with PC-3 prostate is 37.1 µM; in the assay with A549 NSCLC, > 50 µM; in the assay on HOP-62 NSCLC, 23 µM; in the assay with COLO 205 colon, 20.5 µM; with U251 CNS, 23.8 µM; in the assay with HCT-15 colon, 21.7 µM. The TGI stood at 22.3 µM with MDA-MB-435, 49.4 µM with K-562 leukemia, 16.3 µM in the assay on HOP-92 NSCLC and 27.8 µM in the assay on IGROV1 ovarian.
For `CC(C)C(=O)/C=C/c1c(Cl)cccc1Cl`, the TGI came out at 24.4 µM in the assay with PC-3 prostate; 21.9 µM with A549 NSCLC; 17.7 µM with HOP-62 NSCLC; 22.4 µM in the assay with COLO 205 colon; 11.7 µM in the assay on U251 CNS; 17.8 µM in the assay on HCT-15 colon. Besides, the TGI was 14.7 µM with MDA-MB-435, > 100 µM with K-562 leukemia, 26.6 µM in the assay with HOP-92 NSCLC and 14.2 µM in the assay on IGROV1 ovarian.
Regarding `COc1ccc(CNc2nc3cc(C(F)(F)F)ccc3nc2C(=O)O)cc1`, the TGI in the assay on PC-3 prostate was > 100 µM; with A549 NSCLC, 95.9 µM; in the assay on HOP-62 NSCLC, 55.5 µM; with COLO 205 colon, 39.7 µM; in the assay with U251 CNS, > 100 µM; in the assay with HCT-15 colon it was 69.3 µM. In addition, the TGI with MDA-MB-435 is 50.6 µM; with K-562 leukemia, 61.3 µM; in the assay with HOP-92 NSCLC, 62.9 µM; with IGROV1 ovarian it was > 100 µM.
Consider `C=C(C)CCC(O)[C@](C)(O)[C@H]1[C@H](O)C[C@@]2(C)[C@@H]3CCc4c(cc(OC5OC(CO)C(O)C(O)C5O)c(O)c4C)C3(C)C(=O)C[C@]12C` (stereo not given in full), for which the TGI in the assay on PC-3 prostate, in the assay with A549 NSCLC, in the assay with HOP-62 NSCLC, in the assay on COLO 205 colon, with U251 CNS and in the assay on HCT-15 colon was > 100 µM each time. The TGI with MDA-MB-435, in the assay on K-562 leukemia, in the assay on HOP-92 NSCLC and with IGROV1 ovarian was > 100 µM each time.
Take `COC(=O)C1Cc2cc3c(cc2C1)CCC3`: the TGI in the assay with PC-3 prostate, in the assay on A549 NSCLC, with HOP-62 NSCLC, in the assay on COLO 205 colon, with U251 CNS and in the assay with HCT-15 colon was > 100 µM each time. For the same molecule, the TGI in the assay on MDA-MB-435, with K-562 leukemia, in the assay with HOP-92 NSCLC and with IGROV1 ovarian was > 100 µM throughout.
Consider `O[C@@]12Cc3c([nH]c4ccccc34)[C@@H]3Oc4c(-c5ccccc5)ccc5c4[C@@]31CCN(CC1CC1)[C@@H]2C5`, for which the TGI stood at 3.76 µM with PC-3 prostate; 3.53 µM in the assay on A549 NSCLC; 3.06 µM in the assay on HOP-62 NSCLC; 3.28 µM in the assay on COLO 205 colon; 3.09 µM with U251 CNS; 4.06 µM with HCT-15 colon. The TGI with MDA-MB-435 was 3.27 µM; in the assay on K-562 leukemia it was 7.56 µM; with HOP-92 NSCLC, 21.4 µM; in the assay with IGROV1 ovarian, 15 µM.
Turning to `COc1cc(OC)c(/C=N\Nc2nc3ccccc3c(=O)n2-c2ccccc2)c(OC)c1`, the TGI in the assay with PC-3 prostate is 53.7 µM; with A549 NSCLC, > 78.5 µM; with HOP-62 NSCLC, 47.7 µM; in the assay on COLO 205 colon it was > 100 µM; in the assay on U251 CNS, > 100 µM; in the assay with HCT-15 colon, > 100 µM. The TGI with MDA-MB-435 is > 72.7 µM; with K-562 leukemia, > 100 µM; with HOP-92 NSCLC it was 64.3 µM; with IGROV1 ovarian it was > 100 µM.
For the molecule `CC1(C)[C@H]2Cc3cc4nc5ccccn5c4cc3[C@@H]1C2`, the TGI in the assay with PC-3 prostate amounted to 41.5 µM; with A549 NSCLC, 40.7 µM; in the assay on HOP-62 NSCLC it was 39.7 µM; in the assay on COLO 205 colon, 34.7 µM; in the assay with U251 CNS it was 34.2 µM; in the assay with HCT-15 colon it was 35 µM. Besides, the TGI in the assay on MDA-MB-435 is 36.7 µM; in the assay with K-562 leukemia, > 100 µM; in the assay on HOP-92 NSCLC, 29.3 µM; with IGROV1 ovarian, 43 µM.
For the molecule `C[C@@H]1CC[C@@]2(C)[C@H](C)/C(=C\COC(=O)/C=C/c3ccc(O)c(O)c3)CC[C@@]12C`, the TGI was found to be 17.4 µM in the assay on PC-3 prostate; 35.8 µM in the assay with A549 NSCLC; 28.8 µM in the assay with HOP-62 NSCLC; 13.4 µM in the assay with COLO 205 colon; 17.8 µM in the assay with U251 CNS; 16.1 µM with HCT-15 colon. In addition, the TGI with MDA-MB-435 is 11.6 µM; in the assay on K-562 leukemia, 17.8 µM; in the assay on HOP-92 NSCLC, 29.7 µM; in the assay on IGROV1 ovarian it was 22.6 µM.
In the case of `NC1NCCC(=O)N1CCc1c[nH]c2ccccc12` (stereo not given), the TGI in the assay on PC-3 prostate is 44.1 µM; with A549 NSCLC, 69.3 µM; with HOP-62 NSCLC, 43.2 µM; in the assay on COLO 205 colon it was 32.5 µM; in the assay with U251 CNS, > 100 µM; with HCT-15 colon, 65 µM. Further, the TGI with MDA-MB-435 came to 30.7 µM; in the assay with K-562 leukemia, 51 µM; in the assay with HOP-92 NSCLC, 69.5 µM; in the assay on IGROV1 ovarian, 43.1 µM.
Take `COc1ccc(/C=C/C(=O)CCN2CCN(CCC(=O)/C=C/c3ccc(OC)cc3)CC2)cc1`: the TGI in the assay on PC-3 prostate was 25.5 µM; in the assay with A549 NSCLC, 49.5 µM; with HOP-62 NSCLC, 49.7 µM; in the assay with COLO 205 colon, 13.4 µM; in the assay on U251 CNS, 26.6 µM; in the assay with HCT-15 colon it was 22.3 µM. Also, the TGI in the assay on MDA-MB-435 amounted to 24.6 µM; with K-562 leukemia, 37.9 µM; with HOP-92 NSCLC it was 34.5 µM; in the assay on IGROV1 ovarian, 25.9 µM.
